Data on 4 compounds can be found in patent publication US7897620B2, “Methods of using anti-inflammatory compounds” (Cambridge Enterprise Limited, priority 2007, dated 2011).

Like-named read-outs stand apart in the source and are kept apart here.

Data set [1] in a line: Distribution of compounds into tissues and unchanged parent in urine 24 hrs after a single oral dose. The class given is in vivo. Conditions: rat; for concentration at 24 h: 24 hrs after single oral dose 3 mg/kg in 1% CMC, nd = not detected, LLOQ 2.4 ng/g. The method, then:
Urine was collected from rats exposed to a single oral dose (3 mg/kg in 1% CMC) of each compound over a 24 hour period in metabolic cages. The pooled urine sample was then subjected to full scan mass spectral analysis, using the same LC-MS conditions as described in example 1 above. Further MS-MS analysis of the product ions was then performed, and likely fragmentations/re-arrangements assigned from the publicly available Metabolite ID database.
To provide a quantitative estimate of the degree of metabolism suffered by each of the compounds tested, the amount of unchanged parent compound in urine was measured using the same validated LC-MS assay described in example 1, using (S)-3-(2′,2′-dimethylpropanoylamino)-caprolactam as an internal standard. In addition, the level of compounds in various target tissues was also determined.

In data set [2] the test system is MCP-1 induced THP-1 cell migration. Put plainly: ChemoTx transwell migration assay, MCP-1 induced migration of THP-1 cells. The class given is cell-based. Conditions: Homo sapiens. As to the method:
(§1) In principle, this assay consists of two chambers separated by a porous membrane. The chemoattractant is placed in the lower compartment and the cells are placed in the upper compartment. After incubation for a period at 37° C. the cells move towards the chemoattractant, and the number of cells in the lower compartment is proportional to the chemoattractant activity (relative to a series of controls).
(§2) The THP-1 cell line (European Cell Culture Collection) were used as the leukocyte cell population.
(§3) First, the cell suspension to be placed in the upper compartment is prepared. The THP-1 cells are pelleted by centrifugation (770×g; 4 mins) and washed with Geys Balanced Salt Solution with 1 mg/ml BSA (GBSS+BSA). This wash is then repeated, and the cells repelleted before being resuspended in a small volume of GBSS+BSA for counting, for example using a standard haemocytometer.
(§4) The volume of GBSS+BSA is then adjusted depending on the number of cells present so that the cells are at final density of 4.45×10^6 cells per ml of GBSS+BSA. This ensures that there are […] THP-1 cells in each 25 μl of the solution that will be placed in the upper chamber of the plate.
To test a single compound for its ability to inhibit chemokine induced migration, it is necessary to prepare two lots of cells. The suspension of THP-1 cells at 4.45×10^6 cells/ml is divided into two pots. To one pot the inhibitor under test is added at an appropriate final concentration, in an appropriate vehicle (for example at 1 μM in not more than 1% DMSO). To the second pot an equal volume of GBSS+BSA plus vehicle as appropriate (e.g. not more than 1% DMSO) is added to act as a control.
Next, the chemoattractant solution to be placed in the lower compartment is prepared. For example, MCP-1 is diluted in GBSS+BSA to give a final concentration of 25 ng/ml. This is divided into two pots, as for the cell suspension. To one pot, the test compound is added to the same final concentration as was added to the cell suspension, while to the other pot an equal volume of GBSS+BSA plus vehicle as appropriate (e,g. not more than 1% DMSO) is added. Alternatively, other chemokines may be used (SDF-1α at 7.5 ng/ml; RANTES at 50 ng/ml; IL-8 at 10 ng/ml using neutrophils as the target cell population). In each case it is important to determine (in a separate experiment) the concentration of each chemokine which causes maximal stimulation of migration of the chosen target leukocyte population. This maximal concentration must then be used in experiments to test the inhibitory activity of the compounds of the invention.
Once the chemoattractant solutions for the lower wells and cell solutions for the upper chambers have been prepared, the migration chamber should be assembled. Place 29 μl of the appropriate chemoattractant solution into the lower well of the chamber. Assays should be performed with at least triplicate determinations of each condition. Once all the lower chambers have been filled, apply the porous membrane to the chamber in accordance with the manufacturer's instructions. Finally, apply 25 μl of the appropriate cell solution to each upper chamber. A plastic lid is placed over the entire apparatus to prevent evaporation.
The assembled chamber is incubated at 37° C., 5% CO2, for 2 hours. A suspension of cells in GBSS+BSA is also incubated under identical conditions in a tube: these cells will be used to construct a standard curve for determining the number of cells that have migrated to the lower chamber under each condition.
At the end of the incubation, the liquid cell suspension is gently removed from the upper chamber, and 20 μl of ice-cold 20 mM EDTA in PBS is added to the upper chamber, and the apparatus is incubated at 4° C. for 15 mins. This procedure causes any cells adhering to the underside of the membrane to fall into the lower chamber.
After this incubation the filter is carefully flushed with GBSS+BSA to wash off the EDTA, and then the filter is removed. […]

A short description of data set [3]: Pharmacokinetics following a single dose in dog (crossover iv / per os). The settings on record: plasma; for Vd: read-out: Vss. The class given is in vivo. As to the method: In a separate experiment, (I′) was compared with the second best compound (V) for pharmacokinetic parameters in a different (non-rodent) species, the dog. Single doses (1 mg/kg in 5% DMSO intravenously or 3 mg/kg in 1% CMC per os) were administered to a single dog for each compound in a simple crossover design with 1 week washout between the two routes of administration.

Data set [4] is described as follows: Water solubility (observation). The class given is physicochemical.
In data set [5] the test system is SDF-1α induced THP-1 cell migration. Put plainly: ChemoTx transwell migration assay, SDF-1α induced migration of THP-1 cells. In kind it is cell-based. The settings on record: Homo sapiens, maximal dose of chemoattractant, read-out: ED50 SDF-1α. As to the method: as §1, §2, §3, §4
To test a single compound for its ability to inhibit chemokine induced migration, it is necessary to prepare two lots of cells. The suspension of THP-1 cells at 4.45×10^6 cells/ml is divided into two pots. […]

The mark [6] stands for this setting: THP-1 cells, maximal dose of chemoattractant, read-out: ED50 MCP-1.
The mark [7] stands for this setting: THP-1 migration inhibition, Table 5, read-out: Functional ED50 versus MCP-1.

Turning to `CC(C)(C)S(=O)(=O)N[C@H]1CCCCNC1=O` [(IV), 3-(1′,1′-dimethylethylsulfonylamino)-caprolactam], the “fraction of the injected dose recovered unchanged in urine” value in data set [1] (24 hrs, single oral dose 3 mg/kg) was “less than 10%”. Besides, the EC50 in data set [2] (setting [6]) and in data set [2] (setting [7]) was 0.8 nM in each case.
Turning to `CC(C)(C)C(=O)N[C@H]1CCCNC1=O` [Compound (I′), 3-(2′,2′-dimethylpropanoylamino)-tetrahydropyridin-2-one], the clearance in data set [3] (Intravenous PK (1 mg/kg)) was found to be 1.9 mL/min/kg. The half-life came to 236 min in data set [3] (Intravenous PK (1 mg/kg)) and 217 min in data set [3] (Oral PK (3 mg/kg)). In addition, the Vd in data set [3] (Intravenous PK (1 mg/kg)) was 0.6 L/kg. Moreover, in data set [3] (Oral PK (3 mg/kg)), the AUC is 20200 ng·h/mL. Further, in data set [3] (Oral PK (3 mg/kg)), the Tmax is 1 h. Also, the bioavailability in data set [3] (Oral PK (3 mg/kg)) was determined as 75%. Also, the concentration at 24 h worked out at 1.6 ng/g in data set [1] (brain, read-out: Level of compound in Brain); 5.3 ng/g in data set [1] (heart, read-out: Level of compound in Heart); 5.1 ng/g in data set [1] (kidney, read-out: Level of compound in Kidney); 3.6 ng/g in data set [1] (liver, read-out: Level of compound in Liver); 21.9 ng/g in data set [1] (lung, read-out: Level of compound in Lung); 3.1 ng/g in data set [1] (muscle, read-out: Level of compound in Muscle). In addition, the “water solubility” value in data set [4] was “extremely water soluble”.
`O=C1NCCCC[C@@H]1NC(=O)C12CC3CC(CC(O)(C3)C1)C2` [(V), 3-(3′-hydroxyadamantyl-1-carbonylamino)-caprolactam]: in data set [3] (Intravenous PK (1 mg/kg)), the clearance is 7.4 mL/min/kg, the half-life worked out at 66 min and the Vd came to 0.6 L/kg. In data set [3] (Oral PK (3 mg/kg)), the AUC was 4000 ng·h/mL, the Tmax is 1 h, the bioavailability came to 59% and the half-life came to 67 min. Also, the EC50 in data set [5] worked out at 0.2 nM.
Take `O=C1NCCCC[C@@H]1NC(=O)C12CC3CC(CC(C3)C1)C2` [(II), 3-(adamantane-1-carbonylamino)-caprolactam]: the EC50 stood at 0.08 nM in data set [2] (setting [6]), 0.08 nM in data set [2] (setting [7]) and 0.1 nM in data set [5].
